Results from patent publication US20190169218A1, “AMPHIPATHIC COMPOUND HAVING NOVEL PENTA-SACCHARIDE HYDROPHILIC GROUP AND USE THEREOF” (Industry-University Cooperation Foundation Hanyang …, priority 2016, published 2019).

Key:
[1] = hydrodynamic radius of micelles by dynamic light scattering (DLS); format: physicochemical; conditions: compound at 1.0 wt %
Description: Methods of measuring the radius of micelles are not particularly limited, and methods widely known in the art may be used. For example, dynamic light scattering (DLS) may be used.
(§1) Specifically, critical micellar concentrations (CMCs) were measured using hydrophobic fluorescent staining and diphenylhexatriene (DPH), and the hydrodynamic radii (Rh) of micelles formed by each compound at a concentration of 1.0 wt % were measured using dynamic light scattering (DLS). The results were compared with results obtained from an existing amphipathic molecule (detergent), DDM, and are shown in Table 1.
When measuring, each of PSAs, PSEs and TPSs was used at a concentration of 1.0 wt %.

[2] = critical micelle concentration (CMC) by hydrophobic fluorescent staining with diphenylhexatriene (DPH); format: physicochemical
Text: Methods of measuring CMC are not particularly limited, and methods widely known in the art may be used. For example, a fluorescence staining method using diphenylhexatriene (DPH) may be used.
To characterize PSAs of Preparation Examples 1 to 3 synthesized according to the synthetic method of Example 1; PSEs of Preparation Examples 4 to 7 synthesized according to the synthetic method of Example 2; TPS-Es and TPS-ELs of Preparation Examples 8 to 14 synthesized according to the synthetic method of Example 3; and TPS-As of Preparation Examples 15 to 17 synthesized according to the synthetic method of Example 4, the critical micellar concentrations (CMCs) of PSAs, PSEs and TPSs and the hydrodynamic radii (Rh) of formed micelles were measured.
as §1

[3] = target: T1, human β2 adrenergic receptor (β2AR) (Homo sapiens, UniProt P07550); assay: β2AR activity by [3H]-dihydroalprenolol radioactive ligand binding assay; format: biochemical; conditions: 3 or 5 days at room temperature
T1 construct: Flag; made in house
Description: The membrane protein stabilizing ability of receptors (mBBr-β2ARs) solubilized in PSAs or PSEs was evaluated by measuring the binding activity of the receptors to [^3H]-dihydroalprenolol ([^3H]-DHA).
Specifically, radioactive ligand binding assay was performed as follows. β2ARs purified with 0.1 wt % DDM was concentrated to about 10 mg/mL (approximately 200 μM). β2ARs purified with DDM were used to prepare a master binding mixture containing 10 nM [^3H]-dihydroalprenolol (DHA), which was dissolved in 0.2 wt % of DDM, PSA or PSE and supplemented with 0.5 mg/mL BSA. At a concentration of 0.2 pmol, the activity of the receptors purified with the amphipathic compounds was monitored at regular intervals over a 4-day incubation period. Protein samples were incubated on ice for 2 days and then at room temperature for 2 days. Receptor activity was measured by binding assay for dissolved radioactive ligands. The receptors purified with DDM or a novel formulation (PSA-C11, PSE-C11 or PSE-C13) were incubated with 10 nM [^3H]-DHA at room temperature for 30 minutes. The mixture was loaded onto a G-50 column, a solution passed through the column was collected in 1 mL of a binding buffer (100 mM NaCl and 20 mM HEPES (pH 7.5) supplemented with 0.5 mg/mL BSA and 20×CMC amphipathic compounds), and 15 mL of a scintillation fluid was added to the solution. Receptor-bound [^3H]-DHA was measured using a scintillation counter (Beckman). Non-specific binding of [^3H]-DHA was measured by adding 1 μM alprenolol (Sigma) to the same reaction mixture. The binding degree of the receptors to [^3H]-DHA was represented by a column graph.
The ability of TPSs (TPS-As, TPS-Es and TPS-ELs) to stabilize the structures of human β2 adrenergic receptors (β2ARs) and G protein-coupled receptors (GPCRs) was measured. That is, DDM-purified receptors were diluted with a buffer solution containing only each of the TPSs without cholesteryl hemisuccinate (CHS) or a buffer solution containing CHS and DDM. The final concentration of the compounds was CMC+0.2wt %, and the binding activity of the receptors to ligands was evaluated by measuring the degree of binding of the receptors to [^3H]-dihydroalprenolol ([^3H]-DHA).
Specifically, radioactive ligand binding assay was performed as follows. β2ARs were purified with 0.1 wt % DDM (D. M. Rosenbaum et al., Science, 2007, 318, 1266-1273.) and was concentrated to about 10 mg/mL (approximately 200 μM). β2ARs purified with DDM were used to prepare a master binding mixture containing 10 nM [^3H]-dihydroalprenolol (DHA), which was dissolved in 0.2% amphipathic compounds (DDM or TPSs) and supplemented with 0.5 mg/mL BSA. The activity of the receptors purified with the amphipathic compounds was monitored at regular intervals over a 3- to 5-day incubation period. The receptors purified with DDM or TPSs were incubated with 10 nM [^3H]-DHA at room temperature for 30 minutes. The mixture was loaded onto a G-50 column, a solution passed through the column was collected in 1 mL of a binding buffer (100 mM NaCl and 20 mM HEPES (pH 7.5) supplemented with 0.5 mg/mL BSA and 20×CMC of each amphipathic compound), and 15 mL of a scintillation fluid was added to the solution. Receptor-bound [^3H]-DHA was measured using a scintillation counter (Beckman). The binding degree of the receptors to [^3H]-DHA was represented by a column graph.

[4] = system: leucine transporter (LeuT); assay: LeuT stability, [3H]-Leu binding by scintillation proximity assay (SPA); format: biochemical, Aquifex aeolicus; conditions: CMC+0.2 wt %, room temperature, 12 days
Description: The ability of PSAs, PSEs or TPSs (TPS-A/E/ELs) to stabilize leucine transporter (LeuT), a membrane protein, was measured. LeuT purified by DDM was mixed with a solution containing each amphipathic compound, and the mixture was incubated at room temperature for 12 days. The activity of LeuT proteins was measured by scintillation proximity assay (SPA) using a ligand ([^3H]-Leu), and the concentration of PSAs, PSEs, TPSs or DDM was (a) CMC+0.04 wt %, or (b) CMC+0.2 wt %.
Specifically, LeuT stability measurement was performed in the following manner. According to the results of Example 6, PSA-C10, PSA-C11, PSE-C9, PSE-C11, and PSE-C13 were selected as the amphipathic compounds of PSAs and PSEs except for PSA-C9, and wild type leucine transporter (LeuT) was purified from Aquifex aeolicus using TPS-As, TPS-Es and TPS-EL, according to the method described in G. Deckert et al. (Nature 1998, 392, 353-358.). E. coli C41 (DE3) was transformed with a pET16b plasmid containing a gene construct encoding C-terminal 8×His-tagged LeuT, and thus LeuT was expressed in the form of a fusion protein having 8×His tags at the C-terminus in the transformed E. coli C41 (the expression plasmid was provided by Dr. E. Gouaux, Vollum Institute, Portland, Oreg., USA). Briefly, bacterial membranes containing LeuT were treated with 1.0 wt % DDM, and proteins were bound to Ni^2+-NTA resin (Life Technologies, Denmark). LeuT bound to the resin was eluted using a buffer solution containing 20 mM Tris-HCl (pH 8.0), 1 mM NaCl, 199 mM KCl, 0.05% DDM and 300 mM imidazole. Next, about 1.5 mg/mL of protein stock was diluted 10-fold in an equivalent buffer supplemented with TPS-As, TPS-Es, TPS-ELs, PSAs/PSEs (PSA-C10, PSA-C11, PSE-C9, PSE-C11 and PSE-C13) or DDM (control group) to a final concentration of CMC+0.04 wt % or CMC+0.2 wt % without DDM and imidazole. The protein samples were stored at room temperature and centrifuged at designated times. Protein activity was determined by measuring the degree of binding to [^3H]-Leu using scintillation proximity assay (SPA) (M. Quick et al., Proc. Natl, Acad. Sci. U.S.A. 2007, 104, 3603-3608.). Briefly, SPA was performed with 5 μL of each protein sample dissolved in a buffer containing 450 mM NaCl and each test compound. The SPA reaction was performed in the presence of 20 nM [^3H]-Leu and copper chelate (His-Tag) YSi beads (both were purchased from PerkinElmer, Denmark). The degree of binding to [^3H]-Leu was measured using a MicroBeta liquid scintillation counter (PerkinElmer).

T1 sequence (P07550 whole entry): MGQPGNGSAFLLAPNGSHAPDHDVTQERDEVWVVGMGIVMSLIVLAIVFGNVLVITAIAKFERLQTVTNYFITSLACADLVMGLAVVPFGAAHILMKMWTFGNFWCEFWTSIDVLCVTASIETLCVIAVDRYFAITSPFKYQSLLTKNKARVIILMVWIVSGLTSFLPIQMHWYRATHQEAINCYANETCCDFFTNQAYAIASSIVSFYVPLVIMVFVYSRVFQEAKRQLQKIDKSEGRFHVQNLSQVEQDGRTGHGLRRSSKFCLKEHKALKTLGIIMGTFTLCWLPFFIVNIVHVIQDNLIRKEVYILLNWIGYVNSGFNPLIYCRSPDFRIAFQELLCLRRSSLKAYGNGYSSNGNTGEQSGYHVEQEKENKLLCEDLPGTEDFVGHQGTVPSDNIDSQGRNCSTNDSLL

CCCCCCCCOCC(COCCCCCCCC)(COCCCCCCCC)CO[C@@H]1OC(COCCCO[C@@H]2OC(CO)[C@@H](O)C(O)C2O)[C@@H](OCCCO[C@@H]2OC(CO)[C@@H](O)C(O)C2O)C(OCCCO[C@@H]2OC(CO)[C@@H](O)C(O)C2O)C1OCCCO[C@@H]1OC(CO)[C@@H](O)C(O)C1O (some centres unmarked) [TPS-E8L]
Rh (nm), hydrodynamic radius of micelles [1]: 4.5 ± 0.39 nm | CMC [2]: ~0.006 mM | CMC (wt %) [2]: ~0.0009 wt %

CCCCCCCCCOCC(COCCCCCCCCC)(COCCCCCCCCC)CO[C@@H]1OC(COCCCO[C@@H]2OC(CO)[C@@H](O)C(O)C2O)[C@@H](OCCCO[C@@H]2OC(CO)[C@@H](O)C(O)C2O)C(OCCCO[C@@H]2OC(CO)[C@@H](O)C(O)C2O)C1OCCCO[C@@H]1OC(CO)[C@@H](O)C(O)C1O (some centres unmarked) [TPS-E9L]
Rh (nm), hydrodynamic radius of micelles [1]: 4.6 ± 0.18 nm | long-term β2AR activity ([3H]-DHA binding) [3]: significantly better than that of DDM | CMC [2]: ~0.004 mM | CMC (wt %) [2]: ~0.0006 wt %

CCCCCCCOCC(COCCCCCCC)(COCCCCCCC)CO[C@@H]1OC(CO[C@@H]2OC(CO)[C@@H](O)C(O)C2O)[C@@H](O[C@@H]2OC(CO)[C@@H](O)C(O)C2O)C(O[C@@H]2OC(CO)[C@@H](O)C(O)C2O)C1O[C@@H]1OC(CO)[C@@H](O)C(O)C1O (some centres unmarked) [TPS-E7]
Rh (nm), hydrodynamic radius of micelles [1]: 13.0 ± 0.8 nm | CMC [2]: ~0.012 mM | CMC (wt %) [2]: ~0.0015 wt %

CCCCCCOCC(COCCCCCC)(COCCCCCC)CO[C@@H]1OC(CO[C@@H]2OC(CO)[C@@H](O)C(O)C2O)[C@@H](O[C@@H]2OC(CO)[C@@H](O)C(O)C2O)C(O[C@@H]2OC(CO)[C@@H](O)C(O)C2O)C1O[C@@H]1OC(CO)[C@@H](O)C(O)C1O (some centres unmarked) [TPS-E6]
Rh (nm), hydrodynamic radius of micelles [1]: 2.9 ± 0.05 nm | CMC [2]: ~0.020 mM | CMC (wt %) [2]: ~0.0024 wt %

CCCCCCCOCC(COCCCCCCC)O[C@@H]1OC(CO[C@@H]2OC(CO)[C@@H](O)C(O)C2O)[C@@H](O[C@@H]2OC(CO)[C@@H](O)C(O)C2O)C(O[C@@H]2OC(CO)[C@@H](O)C(O)C2O)C1O[C@@H]1OC(CO)[C@@H](O)C(O)C1O (some centres unmarked) [PSE-C7]
Rh (nm), hydrodynamic radius of micelles [1]: 2.66 ± 0.04 nm | CMC [2]: ~0.27 mM | CMC (wt %) [2]: ~0.0300 wt %

CCCCCCCCCCC(CCCCCCCCCC)(CO[C@@H]1O[C@H](CO)[C@@H](O[C@H]2O[C@H](CO)[C@@H](O)[C@H](O)[C@H]2O)[C@H](O)[C@H]1O)CO[C@@H]1O[C@H](CO)[C@@H](O[C@H]2O[C@H](CO)[C@@H](O)[C@H](O)[C@H]2O)[C@H](O)[C@H]1O [MNG-3, reference compound]
LeuT transporter activity retained after 12 days of incubation [4]: 40%
